For eight compounds, IC50 and Ki results are on record in PMC12607499, “Prokaryotic Expression and Binding Characteristics of Odor-Binding Protein GqinOBP10 in Gynaephora qinghaiensis” (International Journal of Molecular Sciences, 2025).

Molecules are shown by their SMILES.

The target of the assay is T1, GqinOBP10.
T1 construct: gene OBP10; full length 134 residues (405 bp); signal peptide removed; vector pCZN1, E. coli BL21 (DE3); His tag cut off with enterokinase; about 15 kDa
Nature of the assay: fluorescence competitive binding with 1-NPN probe. Also noted: species or system Gynaephora qinghaiensis. The note with it: 2 µM protein, 50 mM Tris-HCl pH 7.4; displacement of 1-NPN. An excerpt: fluorescence competitive binding with 1-NPN probe on GqinOBP10

For `NCC(O)c1ccccc1` (stereo not shown) [2-Amino-1-phenylethanol], the IC50 was found to be 4.51 µM and the Ki turned out to be 4.48 µM.

Turning to `CCCCCCCC/C=C\CCCCCCCC(=O)OC(CO)CO` [2-Oleoylglycerol], the IC50 came out at 6 µM and the Ki came to 5.96 µM.

`OCCC(O)CO` (stereo not shown) [1,2,4-butanetriol] had an IC50 of 11.7 µM and a Ki of 11.6 µM.

Turning to `N#CC[C@H](N)C(=O)O` [β-cyano-L-alanine], the IC50 was 12.3 µM and the Ki was 12.2 µM.

Take `NC1(C(=O)O)CC1` [1-Aminocyclopropane-1-carboxylic acid]: the IC50 is 18.7 µM and the Ki came out at 18.6 µM.

`O=C1CCC(=O)CC1` [1,4-Cyclohexanedione] yielded an IC50 of 13.1 µM and a Ki of 13 µM.

As to `OC1CCc2ccccc21` (stereo not shown) [1-Indanol], the IC50 was determined as 12 µM and the Ki stood at 11.9 µM.

In turn, `CC(CN)C(=O)O` (stereo not shown) [3-Aminoisobutanoic acid] came in with an IC50 of 15 µM and a Ki of 14.9 µM.
